{
  "source": "patent US12728116B2",
  "about": "“Methods of treating multiple sclerosis” (Vanda Pharmaceuticals Inc., priority 2021, dated 2026)",
  "key": {"[1]": {"test_system": "adult subjects with relapsing MS", "experiment": "Treatment-emergent adverse events (Safety Set);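 also: safety Set comprises every randomized subject given one or more doses, analysed by the treatment actually received rather than the assigned arm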", "type": "in vivo, human", "details": "for AESI effect on heart rate and rhythm (including hypotension) on Day 1: subjects with at least one AE, %: Day 1 (ponesimod dose 2 mg)", "quoted_text": "The Safety Set (SAF) included all randomized subjects who received at least one dose of study treatment. Subjects were analyzed based on actual treatment taken, not randomized treatment."}, "[2]": {"test_system": "Patients (18-55 years) with RMS", "experiment": "Prespecified MRI-based endpoints and NEDA-3 status", "type": "in vivo, human", "procedure": "Patients (18-55 years) with RMS (expanded disability status scale scores: 0-5.5) were randomized (1:1) to receive ponesimod (PON) 20 mg or teriflunomide (TER) 14 mg for 108 weeks. MRI assessments were: volume of T2 lesions; mean number of new gadolinium-enhancing (Gd+) T1 lesions and new/enlarging T2 lesions; and absence of active MRI lesions at week 108. NEDA-3 status (absence of confirmed relapse, Gd+T1 lesions and new/enlarging T2 lesions on annual MRIs, and 12-week confirmed disability accumulation) was evaluated from baseline to week 108."}, "[3]": {"test_system": "adult subjects with relapsing MS", "experiment": "Time to first 12-week / 24-week confirmed disability accumulation (CDA) on EDSS", "type": "in vivo, human", "details": "ponesimod 20 mg, teriflunomide 14 mg", "procedure": "Secondary efficacy variables and testing strategy: Four secondary efficacy endpoints were analyzed as per the statistical testing strategy outlined in FIG. 1. • Change from baseline to Week 108 in fatigue-related symptoms as measured by the symptoms domain of the FSIQ-RMS patient-reported outcome [Fatigue] • Cumulative number of combined unique active lesions from baseline to Week 108 on brain MRI [CUALs] • Time to first 12-week confirmed disability accumulation (CDA) from baseline to EOS on Expanded Disability Status Scale (EDSS) [12-week CDA] • Time to first 24-week CDA from baseline to EOS on EDSS [24-week CDA]\n(§1) A 12-week CDA is an increase of at least 1.5 in EDSS for subjects with a baseline EDSS score of 0.0 or an increase of at least 1.0 in EDSS for subjects with a baseline EDSS score of 1.0 to 5.0, or an increase of at least 0.5 in EDSS for subjects with a baseline EDSS score≥5.5 which is to be confirmed after 12 weeks.\nAll EDSS measurements (with or without relapse, at a scheduled or unscheduled visit) were used to determine the onset of disability accumulation. However, EDSS scores used for confirmation of disability accumulation were obtained at a scheduled visit (i.e., unscheduled visits cannot be used as confirmatory visits) outside any ongoing relapse. In this context, relapse duration is defined as period between start and end dates if available and limited to 90 days from onset if end date is not available or duration is longer than 90 days.\nIn order to confirm that the EDSS increase is persistent, all EDSS measurements between the onset and the 12-week EDSS confirmation (minus 7-day visit time-window) need to show an increase in EDSS, meeting the criteria for accumulation of disability as defined above.\nas §1, with “24-week” for “12-week”, “24” for “12”\nIn order to confirm that the EDSS increase is persistent, all EDSS measurements between the onset and the 24-week EDSS confirmation (minus 7-day visit time-window) need to show an increase in EDSS, meeting the criteria for accumulation of disability as defined above."}, "[4]": {"test_system": "adult subjects with relapsing MS", "experiment": "Premature treatment discontinuation", "type": "in vivo", "procedure": "A total of 1468 subjects were screened. Of those, 1133 subjects were randomized (567 to ponesimod 20 mg and 566 to teriflunomide 14 mg) across 162 sites in 28 countries, and 1131 subjects received at least one dose of study drug. The disposition of subjects is summarized in Table 1 and a summary of reasons (primary reason) for treatment discontinuation are shown in Table 2. Overall treatment and study discontinuation were balanced across both treatment arms. A total of 6.5% and 2.5% of the subjects discontinued due to AEs or tolerability related reasons in ponesimod 20 mg and teriflunomide 14 mg, respectively, while 1.9% and 4.3% discontinued due to efficacy related reasons. There were 2 deaths reported during the study—both on teriflunomide 14 mg."}, "[5]": {"details": "ponesimod 20 mg, teriflunomide 14 mg"}, "[6]": {"details": "treatment-emergent AESI, Safety Set"}, "[7]": {"details": "treatment-emergent AESI, Safety Set, listed as teriflunomide"}, "[8]": {"details": "treatment-emergent, Safety Set, listed as teriflunomide"}},
  "data": [
    {"smiles": "C/C(O)=C(\\C#N)C(=O)Nc1ccc(C(F)(F)F)cc1", "note": "[Teriflunomide, reference compound]", "values": [
      {"measurement": "AESI effect on heart rate and rhythm (including hypotension) on Day 1: subjects with at least one AE, %", "setting": "[1]; Safety Set", "result": "(0.4) %"},
      {"measurement": "AESI effect on heart rate and rhythm (including hypotension) on Day 1: subjects with at least one AE, %", "setting": "[1]; Safety Set, listed as teriflunomide", "result": 0.4, "unit": "%"},
      {"measurement": "Day 1 AESI PT Electrocardiogram QT prolonged, %", "setting": "[1]; Day 1, Safety Set", "result": "(0.2) %"},
      {"measurement": "Day 1 AESI PT Presyncope, %", "setting": "[1]; Day 1, Safety Set", "result": "(0.2) %"},
      {"measurement": "TEAE ALT increased, subjects", "setting": "[1]; [5]", "result": 9.4, "unit": "%"},
      {"measurement": "TEAE headache, subjects", "setting": "[1]; [5]", "result": 12.7, "unit": "%"},
      {"measurement": "TEAE nasopharyngitis, subjects", "setting": "[1]; [5]", "result": 16.8, "unit": "%"},
      {"measurement": "TEAE upper respiratory tract infection, subjects", "setting": "[1]; [5]", "result": 10.4, "unit": "%"},
      {"measurement": "AESI category Effect on heart rate and rhythm (including aypotension), %", "setting": "[1]; [6]", "result": "(4.2) %"},
      {"measurement": "AESI category Hepatobiliary disorders/Liver enzyme abnormality, %", "setting": "[1]; [6]", "result": "(14.5) %"},
      {"measurement": "AESI category Herpetic infection, %", "setting": "[1]; [6]", "result": "(4.8) %"},
      {"measurement": "AESI category Hypertension, %", "setting": "[1]; [6]", "result": "(9.0) %"},
      {"measurement": "AESI category Macular edema, %", "setting": "[1]; [6]", "result": "(0.2) %"},
      {"measurement": "AESI category Non-skin malignancy, %", "setting": "[1]; [6]", "result": "(0.2) %"},
      {"measurement": "AESI category Pulmonary events, %", "setting": "[1]; [6]", "result": "(2.7) %"},
      {"measurement": "AESI category Seizure, %", "setting": "[1]; [6]", "result": "(0.2) %"},
      {"measurement": "AESI category Skin malignancy, %", "setting": "[1]; [6]", "result": "(0.2) %"},
      {"measurement": "AESI category Hepatobiliary disorders/Liver enzyme abnormality, %", "setting": "[1]; [7]", "result": 14.5, "unit": "%"},
      {"measurement": "AESI category Hypertension, %", "setting": "[1]; [7]", "result": 9.0, "unit": "%"},
      {"measurement": "AESI category Pulmonary events, %", "setting": "[1]; [7]", "result": 2.7, "unit": "%"},
      {"measurement": "AESI category Infection, %", "setting": "[1]; treatment-emergent AESI, only if reported as serious or severe, Safety Set", "result": "(0.9) %"},
      {"measurement": "AEs leading to premature discontinuation, SOC Blood and lymphatic system disorders, %", "setting": "[1]; treatment-emergent, Safety Set", "result": "(0.4) %"},
      {"measurement": "AEs leading to premature discontinuation, SOC Cardiac disorders, %", "setting": "[1]; treatment-emergent, Safety Set", "result": "(0.4) %"},
      {"measurement": "AEs leading to premature discontinuation, SOC Gastrointestinal disorders, %", "setting": "[1]; treatment-emergent, Safety Set", "result": "(0.7) %"},
      {"measurement": "AEs leading to premature discontinuation, SOC General disorders and administration site conditions, %", "setting": "[1]; treatment-emergent, Safety Set", "result": "(0.4) %"},
      {"measurement": "AEs leading to premature discontinuation, SOC Hepatobiliary disorders, %", "setting": "[1]; treatment-emergent, Safety Set", "result": "(0.4) %"},
      {"measurement": "AEs leading to premature discontinuation, SOC Investigations, %", "setting": "[1]; treatment-emergent, Safety Set", "result": "(1.8) %"},
      {"measurement": "AEs leading to premature discontinuation, SOC Musculoskeletal and connective tissue disorders, %", "setting": "[1]; treatment-emergent, Safety Set", "result": "(0.2) %"},
      {"measurement": "AEs leading to premature discontinuation, SOC Neoplasms benign, malignant and unspecified (incl cysts and polyps), %", "setting": "[1]; treatment-emergent, Safety Set", "result": "(0.2) %"},
      {"measurement": "AEs leading to premature discontinuation, SOC Nervous system disorders, %", "setting": "[1]; treatment-emergent, Safety Set", "result": "(0.7) %"},
      {"measurement": "AEs leading to premature discontinuation, SOC Pregnancy, puerperium and perinatal conditions, %", "setting": "[1]; treatment-emergent, Safety Set", "result": "(0.5) %"},
      {"measurement": "AEs leading to premature discontinuation, SOC Psychiatric disorders, %", "setting": "[1]; treatment-emergent, Safety Set", "result": "(0.2) %"},
      {"measurement": "AEs leading to premature discontinuation, SOC Reproductive system and breast disorders, %", "setting": "[1]; treatment-emergent, Safety Set", "result": "(0.2) %"},
      {"measurement": "AEs leading to premature discontinuation, SOC Skin and subcutaneous tissue disorders, %", "setting": "[1]; treatment-emergent, Safety Set", "result": "(0.4) %"},
      {"measurement": "AEs leading to premature discontinuation, SOC Social circumstances, %", "setting": "[1]; treatment-emergent, Safety Set", "result": "(0.2) %"},
      {"measurement": "AEs leading to premature discontinuation, SOC Surgical and medical procedures, %", "setting": "[1]; treatment-emergent, Safety Set", "result": "(0.2) %"},
      {"measurement": "Subjects with at least one AE leading to study drug discontinuation, %", "setting": "[1]; treatment-emergent, Safety Set", "result": "(6.0) %"},
      {"measurement": "Subjects with at least one AE, %", "setting": "[1]; treatment-emergent, Safety Set", "result": "(88.2) %"},
      {"measurement": "Subjects with at least one Drug-Related AE, %", "setting": "[1]; treatment-emergent, Safety Set", "result": "(42.0) %"},
      {"measurement": "Subjects with at least one Fatal AE, %", "setting": "[1]; treatment-emergent, Safety Set", "result": "(0.4) %"},
      {"measurement": "Subjects with at least one Serious AE, %", "setting": "[1]; treatment-emergent, Safety Set", "result": "(8.1) %"},
      {"measurement": "Subjects with at least one Severe AE, %", "setting": "[1]; treatment-emergent, Safety Set", "result": "(4.6) %"},
      {"measurement": "Subjects with at least one AE leading to study drug discontinuation, %", "setting": "[1]; [8]", "result": 6.0, "unit": "%"},
      {"measurement": "Subjects with at least one AE, %", "setting": "[1]; [8]", "result": 88.2, "unit": "%"},
      {"measurement": "Subjects with at least one Serious AE, %", "setting": "[1]; [8]", "result": 8.1, "unit": "%"},
      {"measurement": "Patients who achieved NEDA-3", "setting": "[2]; At week 108", "result": 18.3, "unit": "%"},
      {"measurement": "Mean number of new Gd+T1 lesions per scan", "setting": "[2]; baseline to week 108", "result": 0.43},
      {"measurement": "Mean numbers of new/enlarging T2 lesions per year", "setting": "[2]; baseline to week 108", "result": 3.16},
      {"measurement": "Subjects with a 12-week CDA up to EOS", "setting": "[3]", "result": 12.4, "unit": "%"},
      {"measurement": "Subjects with a 24-week CDA up to EOS", "setting": "[3]; exploratory", "result": 9.9, "unit": "%"},
      {"measurement": "Premature discontinuation: Death, %", "setting": "[4]; Safety Set", "result": "(0.4) %"},
      {"measurement": "Premature discontinuation: Physician decision, Adverse event, %", "setting": "[4]; Safety Set", "result": "(1.6) %"},
      {"measurement": "Premature discontinuation: Subject decision, Tolerability related, %", "setting": "[4]; Safety Set", "result": "(0.9) %"},
      {"measurement": "Subjects discontinued due to AEs or tolerability related reasons", "setting": "[4]; [5]", "result": 2.5, "unit": "%"}
    ]}
  ]
}
